Among the data in the supplement of paper PMC11061612 are Bliss excess values, retold here.

Common to all, as to assay: Bliss excess, mean over the matrix (fraction); higher = more synergy
The test system of assay [1] is MDA-MB-453 (Breast Carcinoma). In outline:
(§1)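 After 24 hours at 37°C and 5% CO2 in 1536-well plates, cells in DMEM/F12 or RPMI plus 10% FBS received two-drug dose matrices for 72 hours. Viability came from CellTiter-Glo 2.0 luminescence and was scaled as inhibition, anchored at 0 by vehicle wells and at 1 by blank wells. Combination Emax is taken as the second-highest inhibition in the matrix, and Bliss excess as the observed combination effect less EA + EB − EA·EB, with EA and EB the single-agent effects.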

The test system of assay [2] is Ca-Ski (Cervical Carcinoma). In outline: as §1
The next assay has as its system SK-N-AS (Neuroblastoma). In a few lines:
as §1

In assay [3] the test system is OE33 (Esophageal Adenocarcinoma). In a few lines: as §1
The test system of assay [4] is NCI-H1355 (Lung Adenocarcinoma). In outline: as §1
Assay [5] relates to KGN (Other Solid Carcinomas). In a few lines:
as §1

Assay [6] deals with NCI-H1993 (Lung Adenocarcinoma). In a few lines: as §1
For assay [7], the system named is DU-145 (Prostate Carcinoma). In a few lines:
as §1

Assay [8] deals with MV-4-11 (Acute Myeloid Leukemia). In a few lines: as §1
Assay [9] relates to SKN (Other Solid Carcinomas). In a few lines: as §1
The test system of assay [10] is MOG-G-UVW (Low Grade Glioma). In outline:
as §1

Assay [11] relates to SNU-387 (Hepatocellular Carcinoma). In a few lines: as §1
Assay [12] relates to SW982 (Other Solid Carcinomas). In outline: as §1
In assay [13] the test system is NCI-H522 (Lung Adenocarcinoma). In outline: as §1
Assay [14] deals with COLO-668 (Small Cell Lung Carcinoma). In a few lines:
as §1

In assay [15] the test system is HAL-01 (B-Lymphoblastic Leukemia). In outline: as §1
In assay [16] the test system is EFO-21 (Ovarian Carcinoma). In outline: as §1
Assay [17] relates to SW872 (Other Solid Carcinomas). In outline: as §1
Assay [18] concerns ML-2 (Acute Myeloid Leukemia). In a few lines:
as §1

Assay [19] deals with Mo-T (Other Blood Carcinomas). In a few lines:
as §1

With `CN(CCO)CC[C@H](CSc1ccccc1)Nc1ccc(S(=O)(=O)NC(=O)c2ccc(N3CCC([C@@H](O)c4ccccc4-c4ccc(Cl)cc4)CC3)cc2)cc1S(=O)(=O)C(F)(F)F` [AZD4320] + Cn1cnc2c(F)c(Nc3ccc(Br)cc3Cl)c(C(=O)NOCCO)cc21 [Selumetinib] (first compound max 1 µM, 7x7, partner max 3 µM), the Bliss excess in assay [1] was -0.0218; in [2] it was 0.0763; in the assay with SK-N-AS (Neuroblastoma), -0.0204; in [3], 0.0249; in assay [4] it was 0.0529; in [5], 0.0113. In addition, the Bliss excess in assay [6] was -0.0307; in assay [7] it was 0.0057; in assay [8], 0.0513; in [9], -0.0209; in [10], -0.0034; in assay [11] it was 0.0149. Moreover, the Bliss excess is -0.0042 in [12]; -0.0181 in [13]; 0.114 in assay [14]; -0.0053 in [15]; -0.0084 in assay [16]; 0.0556 in assay [17]. Further, the Bliss excess in [18] amounted to 0.0723; in [19], 0.0434.
For the compound `CN(CCO)CC[C@H](CSc1ccccc1)Nc1ccc(S(=O)(=O)NC(=O)c2ccc(N3CCC([C@@H](O)c4ccccc4-c4ccc(Cl)cc4)CC3)cc2)cc1S(=O)(=O)C(F)(F)F` [AZD4320] + Nc1ccn([C@@H]2O[C@H](CO)[C@@H](O)C2(F)F)c(=O)n1 [Gemcitabine] (first compound max 1 µM, 7x7, partner max 0.3 µM), the Bliss excess is 0.0093 in assay [1]; 0.0469 in assay [2]; 0.0011 with SK-N-AS (Neuroblastoma); -0.0527 in [3]; -0.0349 in assay [4]; -0.0204 in [5]. Moreover, the Bliss excess in [6] is -0.0164; in assay [7] it was -0.033; in assay [8], -0.023; in assay [9] it was 0.0198; in assay [10], -0.0147; in assay [11] it was -0.0646. The Bliss excess in assay [12] was 0.0339; in assay [13] it was -0.0645; in [14], 0.0417; in [15] it was 0.0448; in assay [16], 0.0353; in assay [17] it was 0.0199. Besides, the Bliss excess in [18] is 0.0042; in assay [19], 0.114.
With `Cc1c2c(nn1C)CSCc1cc(n(C)n1)CSc1cc(c3ccccc3c1)OCCCc1c(C(=O)O)n(C)c3c-2c(Cl)ccc13` [AZD5991] + Cn1cnc2c(F)c(Nc3ccc(Br)cc3Cl)c(C(=O)NOCCO)cc21 [Selumetinib] (first compound max 1 µM, 7x7, partner max 3 µM), the Bliss excess is 0.0055 in assay [1]; 0.0502 in assay [2]; -0.0277 in the assay on SK-N-AS (Neuroblastoma); -0.0258 in assay [4]; -0.0338 in assay [5]; 0.0043 in assay [6]. Also, the Bliss excess in assay [7] was 0.003; in [8], 0.0172; in assay [9], -0.0276; in assay [10] it was -0.0869; in assay [11], 0.064; in assay [12], 0.0248. In addition, the Bliss excess in [13] was -0.0194; in assay [14], 0.106; in assay [15] it was 0.062; in assay [16], -0.0248; in assay [17] it was -0.003; in assay [18], 0.0659. Also, the Bliss excess in [19] was -0.0167.
Take `Cc1cc2ncnn2cc1Nc1ncc2c(n1)n(C1CCOCC1)c(=O)n2C` [AZD7648] + C=CCn1c(=O)c2cnc(Nc3ccc(N4CCN(C)CC4)cc3)nc2n1-c1cccc(C(C)(C)O)n1 [AZD1775] (first compound max 10 µM, partner max 1 µM): the Bliss excess in assay [1] is -0.0223; in assay [2], -0.0255; in the assay on SK-N-AS (Neuroblastoma), 0.0212; in [3], 0.0062; in assay [4] it was -0.0276; in assay [5], -0.0266. For the same compound, the Bliss excess in assay [6] was -0.0167; in assay [7], -0.0341; in assay [8] it was 0.053; in assay [9], -0.0103; in [10], -0.0301; in assay [11], -0.123. Moreover, the Bliss excess in assay [12] is -0.0111; in assay [13], 0.0181; in assay [14] it was -0.0151; in assay [15] it was 0.183; in assay [16], 0.0175; in [17] it was 0.0554. In addition, the values for the Bliss excess in assay [18] and in assay [19] were -0.0199 and -0.14, respectively.
Consider `Cc1cc2ncnn2cc1Nc1ncc2c(n1)n(C1CCOCC1)c(=O)n2C` [AZD7648] + CCN(CCO)CCCOc1ccc2c(Nc3cc(CC(=O)Nc4cccc(F)c4)[nH]n3)ncnc2c1 [AZD2811] (first compound max 10 µM, 7x7, partner max 1 µM), for which the Bliss excess is -0.0013 in assay [1]; 0.0387 in [2]; -0.0011 with SK-N-AS (Neuroblastoma); -0.0315 in [3]; -0.0401 in assay [4]; -0.0649 in [5]. Moreover, the Bliss excess in [6] is 0.0171; in [7], -0.0078; in assay [8], -0.0538; in assay [9], -0.033; in assay [10], -0.027; in [11] it was -0.0345. In addition, the Bliss excess in assay [12] was -0.0569; in [13] it was 0.0156; in assay [14] it was 0.0084; in [15] it was 0.0199; in assay [16], -0.0061; in [17] it was 0.0723. The Bliss excess in assay [18] was -0.116; in assay [19], -0.0582.
Consider `Cc1cc2ncnn2cc1Nc1ncc2c(n1)n(C1CCOCC1)c(=O)n2C` [AZD7648] + CN(C)CCCOc1ccc(-c2ccc3ncc4c(c3c2)n(C2CCOCC2)c(=O)n4C)cn1 [AZD0156] (first compound max 10 µM, 7x7, partner max 1 µM), for which the Bliss excess is 0.0257 in assay [1]; 0.0424 in [2]; -0.008 with SK-N-AS (Neuroblastoma); 0.0005 in assay [3]; -0.033 in assay [4]; -0.0424 in [5]. For the same compound, the Bliss excess was -0.0225 in [6]; -0.0142 in assay [7]; 0.0291 in assay [8]; 0.0229 in assay [9]; 0.0206 in [10]; -0.0188 in [11]. For the same compound, the Bliss excess was -0.0471 in assay [12]; -0.0127 in [13]; -0.0252 in [14]; -0.0058 in assay [15]; -0.0063 in assay [16]; 0.0713 in assay [17]. For the same compound, the Bliss excess in assay [18] is -0.0154; in [19] it was -0.122.
Regarding `N#Cc1cnc(Nc2cc(NC[C@H]3CNCCO3)c(C(F)(F)F)cn2)cn1` [SRA737] + C=CCn1c(=O)c2cnc(Nc3ccc(N4CCN(C)CC4)cc3)nc2n1-c1cccc(C(C)(C)O)n1 [AZD1775] (first compound max 10 µM, partner max 1 µM), the Bliss excess is 0.0927 in assay [1]; 0.117 in assay [2]; 0.0512 in the assay on SK-N-AS (Neuroblastoma); 0.0063 in assay [3]; -0.0046 in assay [4]; 0.0807 in assay [5]. For the same compound, the Bliss excess is 0.194 in [6]; -0.0105 in assay [7]; 0.0409 in assay [8]; -0.0293 in assay [9]; 0.0652 in [10]; 0.03 in assay [11]. The Bliss excess in [12] is 0.0316; in [13], -0.0295; in [14], 0.151; in assay [15], 0.0645; in [17], 0.0756; in assay [18] it was 0.0592. In [19], the Bliss excess is -0.0097.
